Experimental data taken from ChEMBL document CHEMBL1201862, “PubChem BioAssay data set” (2004).
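Test compounds were applied to cells in 96-well plates for 48 hours at 5 doses. GI50 marks 50% less growth.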 Active and inactive are the calls of the source. No stated cut-off is given here; in the data, active = GI50 up to about 1.1 µM and inactive = higher.

Key:
Test in all cases: NCI-60 cell line screen, 48 h
ACHN = system: ACHN
CAKI-1 = system: CAKI-1
COLO 205 = system: COLO 205
HCT-116 = system: HCT-116
HOP-92 = system: HOP-92
IGROV-1 = system: IGROV-1
KM12 = system: KM12
Malme-3M = system: Malme-3M
NCI-H226 = system: NCI-H226
NCI-H23 = system: NCI-H23
NCI-H522 = system: NCI-H522
OVCAR-4 = system: OVCAR-4
OVCAR-5 = system: OVCAR-5
OVCAR-8 = system: OVCAR-8
SF-295 = system: SF-295
SNB-19 = system: SNB-19
UACC-62 = system: UACC-62
UO-31 = system: UO-31

Measured: GI50

O=[N+]([O-])c1ccc(COc2cccc3cccnc23)cc1
inactive: ACHN 19.6 µM | CAKI-1 30.3 µM | COLO 205 17.2 µM | HCT-116 25.2 µM | HOP-92 31 µM | IGROV-1 22.5 µM | KM12 23.8 µM | Malme-3M 33 µM | NCI-H226 18.7 µM | NCI-H23 20 µM | NCI-H522 4.53 µM | OVCAR-4 12.4 µM | OVCAR-5 38.5 µM | OVCAR-8 20.5 µM | SF-295 26.6 µM | SNB-19 27.4 µM | UACC-62 17.3 µM | UO-31 10.1 µM

O=C(Nc1ccc(Cl)cc1Cl)/C(Cl)=C1/Sc2ccccc2NC1=O
inactive: ACHN 38 µM | CAKI-1 41.2 µM | COLO 205 26.6 µM | HCT-116 23 µM | HOP-92 16.8 µM | IGROV-1 28.6 µM | Malme-3M 20 µM | NCI-H226 25.2 µM | NCI-H23 19.6 µM | NCI-H522 18.8 µM | OVCAR-4 24.7 µM | OVCAR-5 52.6 µM | OVCAR-8 50.5 µM | SNB-19 34.5 µM | UACC-62 25.6 µM | UO-31 30 µM

COC(=O)[C@H]1N[C@@H](C(=O)OC)C23CCC[C@H]2CC[C@]1(C(OC)OC)C3
inactive: ACHN > 100 µM | CAKI-1 > 100 µM | COLO 205 87.7 µM | HCT-116 > 100 µM | HOP-92 > 100 µM | IGROV-1 > 100 µM | KM12 > 100 µM | Malme-3M > 100 µM | NCI-H226 > 100 µM | NCI-H23 > 100 µM | NCI-H522 > 100 µM | OVCAR-4 > 100 µM | OVCAR-5 > 100 µM | OVCAR-8 > 100 µM | SF-295 > 100 µM | SNB-19 > 100 µM | UACC-62 > 100 µM | UO-31 > 100 µM

C=CCc1cc(OC)c2c(c1)C(OC(C)=O)CC(c1ccc(OC)c(OC)c1)O2 (centres undefined)
inactive: ACHN > 100 µM | CAKI-1 > 100 µM | COLO 205 > 100 µM | HCT-116 > 100 µM | HOP-92 23.4 µM | IGROV-1 > 100 µM | KM12 > 100 µM | Malme-3M > 100 µM | NCI-H226 > 100 µM | NCI-H23 46.7 µM | NCI-H522 > 100 µM | OVCAR-4 > 100 µM | OVCAR-5 > 100 µM | SF-295 67.3 µM | SNB-19 49.4 µM | UACC-62 > 100 µM | UO-31 > 100 µM

C=C(N=[N+]=[N-])c1cn(C2CC(O)C(CO)O2)c(=O)[nH]c1=O (centres undefined)
inactive: ACHN > 100 µM | CAKI-1 > 100 µM | COLO 205 > 100 µM | HCT-116 > 100 µM | HOP-92 > 100 µM | IGROV-1 > 100 µM | KM12 > 100 µM | Malme-3M > 100 µM | NCI-H226 > 100 µM | NCI-H23 > 100 µM | NCI-H522 > 100 µM | OVCAR-5 > 100 µM | OVCAR-8 > 100 µM | SF-295 > 100 µM | SNB-19 > 100 µM | UACC-62 > 100 µM | UO-31 > 100 µM

Cc1c(/C=N/N(C)C)oc2c1cc(O)c1ncccc12
inactive: ACHN 7.89 µM | CAKI-1 4.03 µM | COLO 205 35.8 µM | HCT-116 2.99 µM | HOP-92 10.7 µM | IGROV-1 14.3 µM | KM12 18.2 µM | Malme-3M 11.2 µM | NCI-H226 13.2 µM | NCI-H23 3.61 µM | NCI-H522 2.38 µM | OVCAR-4 4.75 µM | OVCAR-5 7.24 µM | OVCAR-8 4.07 µM | SF-295 9.91 µM | SNB-19 14.1 µM | UACC-62 13.8 µM | UO-31 2.08 µM

COc1ccc(Cc2c3cc(OC)c(OC)cc3cc[n+]2C)cc1
inactive: ACHN > 29.2 µM | CAKI-1 > 48.3 µM | COLO 205 5.21 µM | HCT-116 15 µM | HOP-92 23.1 µM | IGROV-1 38.7 µM | KM12 9.29 µM | Malme-3M 27.2 µM | NCI-H226 33.1 µM | NCI-H23 8.3 µM | NCI-H522 19.9 µM | OVCAR-4 19.8 µM | OVCAR-5 > 100 µM | OVCAR-8 6.85 µM | SF-295 5.73 µM | SNB-19 6.81 µM | UACC-62 18.9 µM | UO-31 > 34 µM

COc1ccc(/C=C/c2cc(OC)c(OCc3ccccc3)c(OC)c2)cc1
inactive: ACHN > 100 µM | CAKI-1 > 100 µM | COLO 205 > 100 µM | HCT-116 > 100 µM | HOP-92 89.7 µM | IGROV-1 > 100 µM | KM12 > 100 µM | Malme-3M > 100 µM | NCI-H226 > 100 µM | NCI-H23 64 µM | NCI-H522 > 100 µM | OVCAR-4 23.6 µM | OVCAR-5 8.99 µM | OVCAR-8 > 100 µM | SNB-19 > 100 µM | UACC-62 77.1 µM | UO-31 52.1 µM
